Legend:
[1] = biological target: T1, human EHMT1 982-1266 (Homo sapiens, UniProt Q9H9B1); experiment: EHMT1 enzyme assay on histone peptide substrate (3H-SAM SPA); conditions: EHMT1 IC50, recombinant human EHMT1 982-1266, histone peptide substrate
T1 sequence (Q9H9B1 982-1266): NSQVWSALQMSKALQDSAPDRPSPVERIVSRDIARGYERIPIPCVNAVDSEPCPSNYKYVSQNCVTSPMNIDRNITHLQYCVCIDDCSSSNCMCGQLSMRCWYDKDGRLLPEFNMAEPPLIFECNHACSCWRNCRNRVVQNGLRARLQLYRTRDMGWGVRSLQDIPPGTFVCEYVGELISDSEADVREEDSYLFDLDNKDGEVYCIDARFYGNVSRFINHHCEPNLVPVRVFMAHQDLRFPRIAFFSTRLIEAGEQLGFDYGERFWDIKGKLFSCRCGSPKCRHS

[2] = biological target: T2, human EHMT2 913-1193 (Homo sapiens, UniProt Q96KQ7); experiment: EHMT2 enzyme assay on histone peptide substrate (3H-SAM SPA); conditions: EHMT2 IC50, recombinant human EHMT2 913-1193, histone peptide substrate
T2 sequence (Q96KQ7 913-1193): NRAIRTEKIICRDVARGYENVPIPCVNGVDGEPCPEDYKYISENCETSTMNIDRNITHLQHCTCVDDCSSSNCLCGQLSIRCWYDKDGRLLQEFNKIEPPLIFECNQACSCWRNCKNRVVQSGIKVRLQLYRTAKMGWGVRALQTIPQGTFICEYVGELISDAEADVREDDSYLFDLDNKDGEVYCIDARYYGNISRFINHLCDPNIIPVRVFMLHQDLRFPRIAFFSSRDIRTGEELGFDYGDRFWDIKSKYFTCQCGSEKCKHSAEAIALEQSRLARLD

CNc1cc(C)nc(Nc2cc3c(c(C4=CCNC(CO)CC4)c2F)OCC3)n1 (single isomer, unassigned) [Compound 159-a]
IC50 [1]: 500 to 2000 nM | IC50 [2]: > 2000 nM

CNc1cc(C)nc(Nc2cc3c(c(C4=CCNC(CO)CC4)c2F)OCC3)n1 (single isomer, unassigned) [Compound 159]
IC50 [1]: < 100 nM | IC50 [2]: 100 to 500 nM

CNc1cc(C)nc(Nc2cc3c(c(C4=CCNC(C)CC4)c2Cl)OCCO3)n1 (single isomer, unassigned) [Compound 161-a]
IC50 [1]: 500 to 2000 nM | IC50 [2]: > 2000 nM

CNc1cc(C)nc(Nc2cc3c(c(C4=CCNC(C)CC4)c2Cl)OCCO3)n1 (single isomer, unassigned) [Compound 161]
IC50 [1]: < 100 nM | IC50 [2]: < 100 nM

CNc1cc(C)nc(Nc2cc3c(c(C4=CCNC(C)CC4)c2F)OCCC3)n1 (single isomer, unassigned) [Compound 162]
IC50 [1]: 500 to 2000 nM | IC50 [2]: 500 to 2000 nM

CNc1cc(C)nc(Nc2cc3c(c(C4=CCNC(C)CC4)c2F)OCCO3)n1 (single isomer, unassigned) [Compound 163-a]
IC50 [1]: 500 to 2000 nM | IC50 [2]: > 2000 nM

CNc1cc(C)nc(Nc2cc3c(c(C4=CCNC(C)CC4)c2F)OCCO3)n1 (single isomer, unassigned) [Compound 163]
IC50 [1]: < 100 nM | IC50 [2]: < 100 nM

CNc1cc(C)nc(Nc2cc3c(c(C4=CCNC(C)CC4)c2F)OCCC3)n1 (single isomer, unassigned) [Compound 164]
IC50 [1]: < 100 nM | IC50 [2]: < 100 nM

CNc1cc(C)nc(Nc2cc3c(c(C4=CCNCC(F)C4)c2F)OCC3)n1 (single isomer, unassigned) [Compound 168]
IC50 [1]: 100 to 500 nM | IC50 [2]: 100 to 500 nM

CNc1cc(C)nc(Nc2cc3c(c(C4=CCNC(C)CC4)c2F)OCC3)n1 (single isomer, unassigned) [Compound 184]
IC50 [1]: 100 to 500 nM | IC50 [2]: 500 to 2000 nM

CNc1cc(C)nc(Nc2cc3c(c(C4=CCNC(C(F)F)CC4)c2F)OCC3)n1 (single isomer, unassigned) [Compound 354-a]
IC50 [1]: > 2000 nM | IC50 [2]: > 2000 nM

CNc1cc(C)nc(Nc2cc3c(c(C4=CCNC(C(F)F)CC4)c2F)OCC3)n1 (single isomer, unassigned) [Compound 354]
IC50 [1]: < 100 nM | IC50 [2]: 100 to 500 nM

CNc1cc(C)nc(Nc2cc3c(c(C4=CCNC(C)CC4)c2Cl)OCO3)n1 (single isomer, unassigned) [Compound 356-a]
IC50 [1]: 500 to 2000 nM | IC50 [2]: > 2000 nM

CNc1cc(C)nc(Nc2cc3c(c(C4=CCNC(C)CC4)c2Cl)OCO3)n1 (single isomer, unassigned) [Compound 356]
IC50 [1]: < 100 nM | IC50 [2]: < 100 nM

CNc1cc(C)nc(Nc2cc3c(c(C4=CCNCC(O)C4)c2C)OCCC3)n1 (single isomer, unassigned) [Compound 360]
IC50 [1]: 100 to 500 nM | IC50 [2]: 500 to 2000 nM

CNc1cc(C)nc(Nc2cc3c(c(C4=CCNC(C)CC4)c2Cl)OCCC3)n1 (single isomer, unassigned) [Compound 365]
IC50 [1]: 100 to 500 nM | IC50 [2]: 500 to 2000 nM

CNc1cc(C)nc(Nc2cc3c(c(C4=CCNCC(OC)C4)c2F)OCC3)n1 (single isomer, unassigned) [Compound 366-a]
IC50 [1]: 500 to 2000 nM | IC50 [2]: > 2000 nM

CNc1cc(C)nc(Nc2cc3c(c(C4=CCNCC(OC)C4)c2F)OCC3)n1 (single isomer, unassigned) [Compound 366]
IC50 [1]: 100 to 500 nM | IC50 [2]: 500 to 2000 nM

CNc1cc(C)nc(Nc2cc3c(c(C4=CCNC(C)CC4)c2C)OCCO3)n1 (single isomer, unassigned) [Compound 368]
IC50 [1]: 100 to 500 nM | IC50 [2]: 100 to 500 nM

CNc1cc(C)nc(Nc2cc3c(c(C4=CCNC(CF)CC4)c2F)OCC3)n1 (single isomer, unassigned) [Compound 371-a]
IC50 [1]: > 2000 nM | IC50 [2]: > 2000 nM

CNc1cc(C)nc(Nc2cc3c(c(C4=CCNC(CF)CC4)c2F)OCC3)n1 (single isomer, unassigned) [Compound 371]
IC50 [1]: < 100 nM | IC50 [2]: < 100 nM

CNc1cc(C)nc(Nc2cc3c(c(C4=CCNC(C)CC4)c2Cl)OCC3)n1 (single isomer, unassigned) [Compound 374-a]
IC50 [1]: 500 to 2000 nM | IC50 [2]: 500 to 2000 nM

CNc1cc(C)nc(Nc2cc3c(c(C4=CCN(C)CC(O)C4)c2C)OCC3)n1 (single isomer, unassigned) [Compound 379]
IC50 [1]: < 100 nM | IC50 [2]: < 100 nM

CNc1cc(C)nc(Nc2cc3c(c(C4=CCNC(C)CC4)c2F)OCO3)n1 (single isomer, unassigned) [Compound 380]
IC50 [1]: 100 to 500 nM | IC50 [2]: 500 to 2000 nM

CNc1cc(C)nc(Nc2cc3c(c(C4=CCNC(C)CC4)c2C)OCC3)n1 (single isomer, unassigned) [Compound 383-a]
IC50 [1]: 500 to 2000 nM | IC50 [2]: 500 to 2000 nM

CNc1cc(C)nc(Nc2cc3c(c(C4=CCNC(C)CC4)c2C)OCCC3)n1 (single isomer, unassigned) [Compound 385-a]
IC50 [1]: > 2000 nM | IC50 [2]: > 2000 nM

CNc1cc(C)nc(Nc2cc3c(c(C4=CCNC(C)CC4)c2C)OCCC3)n1 (single isomer, unassigned) [Compound 385]
IC50 [1]: < 100 nM | IC50 [2]: 100 to 500 nM

CNc1cc(C)nc(Nc2cc3c(c(C4=CCN(C)CC(O)C4)c2C)OCCC3)n1 (single isomer, unassigned) [Compound 418]
IC50 [1]: < 100 nM | IC50 [2]: 100 to 500 nM

CNc1cc(C)nc(Nc2cc3c(c(C4=CCN(C)CC(O)C4)c2C)OCCC3)n1 (single isomer, unassigned) [Compound 419]
IC50 [1]: 500 to 2000 nM | IC50 [2]: > 2000 nM

CNc1cc(C)nc(Nc2cc3c(c(C4=CCC(N)CC4)c2F)OCC3)n1 (single isomer, unassigned) [Compound 436]
IC50 [1]: 500 to 2000 nM | IC50 [2]: > 2000 nM

[2H]Cc1cc(NC([2H])([2H])[2H])nc(Nc2cc3c(c(C4=CCNCCC4)c2)OCCO3)n1 [Compound 216]
IC50 [1]: < 100 nM | IC50 [2]: < 100 nM

CNc1cc(C)nc(Nc2cc3c(c([C@H]4CC[C@H](N)CC4)c2)OCCO3)n1 [Compound 337]
IC50 [1]: 100 to 500 nM | IC50 [2]: > 2000 nM
